Assay results: patent publication US9120805B2, “Substituted pyrrolo[1,2-A]pyrazin-1-ones and pyrazolo[1,5-A]pyrazin-4-ones as inhibitors of tankyrase and poly(ADP-ribose)polymerase activity” (Merck Patent GmbH, priority 2012, dated 2015)
pIC50: −log10 of the molar value.

Assays:
[1] = molecular target: T1, GST-tagged Tnks-1 (1023-1327 aa) (Homo sapiens, UniProt O95271); assay: TNKS1 activity ELISA (autoparsylation assay); format: biochemical
T1 construct: GST-tagged Tnks-1 (1023-1327 aa, prepared in-house); made in house
T1 sequence (O95271 1023-1327): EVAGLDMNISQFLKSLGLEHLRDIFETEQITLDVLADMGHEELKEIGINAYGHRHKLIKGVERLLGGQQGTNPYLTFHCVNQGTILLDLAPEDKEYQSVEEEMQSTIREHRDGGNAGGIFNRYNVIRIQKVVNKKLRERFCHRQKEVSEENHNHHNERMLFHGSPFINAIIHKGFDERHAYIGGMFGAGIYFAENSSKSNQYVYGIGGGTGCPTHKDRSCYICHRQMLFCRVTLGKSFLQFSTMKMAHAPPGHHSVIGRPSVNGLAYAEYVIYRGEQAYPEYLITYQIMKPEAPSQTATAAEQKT
Method: Description of the TNKS1 and TNKS2 ELISA Assay
Biochemical Activity Testing of TNKS 1 and 2: Activity ELISA (Autoparsylation Assay)
For analysis of autoparsylation activity of TNKS 1 and 2 an activity ELISA is performed: In the first step GST tagged TNKS is captured on a Glutathione coated plate. Then the activity assay with biotinylated NAD is performed in the absence/presence of the compounds. During the enzymatic reaction GST tagged TNKS transfers biotinylated ADP-ribose to itself from biotinylated NAD as co-substrate. For the detection streptavidin-HRP conjugate is added that binds to the biotinylated TNKS and is thereby captured to the plates. The amount of biotinylated resp. autoparsylated TNKS is detected with a luminescence substrate for HRP. The level of the luminescence signal correlates directly with the amount of autoparsylated TNKS and therefore with activity of TNKS.
The activity ELISA is performed in 384 well Glutathione coated microtiter plates (Express capture Glutathione coated plate, Biocat, Heidelberg, Germany). The plates are pre-equilibrated with PBS. Then the plates are incubated with 50 μl 20 ng/well GST-tagged Tnks-1 (1023-1327 aa, prepared in-house), respectively GST-tagged Tnks-2 (873-1166 aa, prepared in-house) in assay buffer (50 mM HEPES, 4 mM Mg-chloride, 0.05% Pluronic F-68, 2 mM DTT, pH 7.7) overnight at 4° C. The plates are washed 3 times with PBS-Tween-20. The wells are blocked by incubation at room temperature for 20 minutes with 50 μl blocking buffer (PBS, 0.05% Tween-20, 0.5% BSA). Afterwards the plates are washed 3 times with PBS-Tween-20. The enzymatic reaction is performed in 50 μl reaction solution (50 mM HEPES, 4 mM Mg-chloride, 0.05% Pluronic F-68, 1.4 mM DTT, 0.5% DMSO, pH 7.7) with 10 μM bio-NAD (Biolog, Life science Inst., Bremen, Germany) as co-substrate in the absence or presence of the test compound (10 dilution concentrations) for 1 hour at 30° C. The reaction is stopped by 3 times washing with PBS-Tween-20. For the detection 50 μl of 20 ng/μl Streptavidin, HRP conjugate (MoBiTec, Göttingen, Germany) in PBS/0.05% Tween-20/0.01% BSA are added and the plates are incubated for 30 minutes at room temperature. After three times washing with PBS-Tween-20 50 μl of SuperSignal ELISA Femto Maximum sensitivity substrate solution (ThermoFisherScientific (Pierce), Bonn, Germany) are added. Following a 1 minute incubation at room temperature luminescence signals are measured with an Envision multimode reader (Perkin Elmer LAS Germany GmbH) at 700 nm. The full value used is the inhibitor-free reaction. The pharmacological zero value used is XAV-939 (Tocris) in a final concentration of 5 μM. The inhibitory values (1050) are determined using either the program Symyx Assay Explorer® or Condosseo® from GeneData.

[2] = molecular target: T2, GST-tagged Tankyrase-2 (873-1166 aa) (Homo sapiens, UniProt Q9H2K2); assay: Tankyrase 2 autoparsylation assay (HTRF enzyme assay); format: biochemical
T2 construct: GST-tagged Tankyrase-2 (873-1166 aa)
T2 sequence (Q9H2K2 873-1166): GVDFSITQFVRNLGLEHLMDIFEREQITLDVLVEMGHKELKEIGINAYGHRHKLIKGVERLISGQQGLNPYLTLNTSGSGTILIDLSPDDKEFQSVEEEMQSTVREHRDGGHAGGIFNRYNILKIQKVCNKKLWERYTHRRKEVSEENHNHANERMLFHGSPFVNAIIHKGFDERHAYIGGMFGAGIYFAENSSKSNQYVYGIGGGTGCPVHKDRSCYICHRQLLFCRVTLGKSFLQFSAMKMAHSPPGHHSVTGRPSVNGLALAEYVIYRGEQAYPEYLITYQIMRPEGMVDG
In short: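 ~250 nM GST-tagged enzyme with 5 μM biotin-NAD in HEPES/Mg/DTT buffer pH 7.7, 10 compound concentrations, 90 min at 30 °C; EDTA stop. Eu-anti-GST/streptavidin-Xlent HTRF read (665/615 ratio) after 1 h RT. IC50 relative to inhibitor-free reaction and 5 μM XAV-939 as zero.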

SMILES	pIC50 [1]	pIC50 [2]
Cc1cc2c(=O)[nH]c(-c3ccc(C(C)(C)O)cc3)cn2c1 [Compound A56, 3-[4-(1-hydroxy-1-methyl-ethyl)-phenyl]-7-methyl-2H-pyrrolo[1,2-a]pyrazin-1-one]	> 6.52	5.52 to 6.52
Cc1ccc(-c2cn3cccc3c(=O)[nH]2)cc1 [Compound A12, 3-p-tolyl-2H-pyrrolo[1,2-a]pyrazin-1-one]	> 6.52	5.52 to 6.52
CC(C)(C)c1ccc(-c2cn3cccc3c(=O)[nH]2)cc1 [Compound A11, 3-(4-tert-butyl-phenyl)-2H-pyrrolo[1,2-a]pyrazin-1-one]	> 6.52	> 6.52
CC(C)(O)c1ccc(-c2cn3cc(F)cc3c(=O)[nH]2)cc1 [Compound A59, 7-fluoro-3-[4-(1-hydroxy-1-methyl-ethyl)-phenyl]-2H-pyrrolo[1,2-a]pyrazin-1-one]	> 6.52	> 6.52
Cc1cc2c(=O)[nH]c(-c3ccc(C(C)(C)O)cc3)cn2n1 [Compound A46, 6-[4-(1-hydroxy-1-methyl-ethyl)phenyl]-2-methyl-5H-pyrazolo[1,5-a]pyrazin-4-one]	> 6.52	5.52 to 6.52
CN1CCC(c2ccc(-c3cn4cccc4c(=O)[nH]3)cc2)CC1 [Compound A79, 3-[4-(1-methyl-piperidin-4-yl)-phenyl]-2H-pyrrolo[1,2-a]pyrazin-1-one]	> 6.52	> 6.52
CC(C)(N)c1ccc(-c2cn3cc(F)cc3c(=O)[nH]2)cc1 [Compound A72, 3-[4-(1-amino-1-methyl-ethyl)-phenyl]-7-fluoro-2H-pyrrolo[1,2-a]pyrazin-1-one]	> 6.52	> 6.52
CC(C)(O)c1ccc(-c2cn3cccc3c(=O)[nH]2)cc1 [Compound A29, 3-[4-(1-hydroxy-1-methyl-ethyl)-phenyl]-2H-pyrrolo[1,2-a]pyrazin-1-one]	> 6.52	> 6.52
CC(C)(F)c1ccc(-c2cn3cc(F)cc3c(=O)[nH]2)cc1 [Compound A63, 7-fluoro-3-[4-(1-fluoro-1-methyl-ethyl)-phenyl]-2H-pyrrolo[1,2-a]pyrazin-1-one]	> 6.52	5.52 to 6.52
CC1(c2ccc(-c3cn4cc(F)cc4c(=O)[nH]3)cc2)CCCO1 (stereo not shown) [Compound A73, 7-fluoro-3-[4-(2-methyl-tetrahydro-furan-2-yl)-phenyl]-2H-pyrrolo[1,2-a]pyrazin-1-one]	> 6.52	> 6.52
COCCOC(C)(C)c1ccc(-c2cn3cc(F)cc3c(=O)[nH]2)cc1 [Compound A71, 7-fluoro-3-{4-[1-(2-methoxy-ethoxy)-1-methyl-ethyl]-phenyl}-2H-pyrrolo[1,2-a]pyrazin-1-one]	> 6.52	5.52 to 6.52
O=c1[nH]c(-c2ccc(C3CCNCC3)cc2)cn2cccc12 [Compound A75, 3-(4-piperidin-4-yl-phenyl)-2H-pyrrolo[1,2-a]pyrazin-1-one]	> 6.52	> 6.52
O=c1[nH]c(-c2ccc(C3(O)CCC3)cc2)cn2cccc12 [Compound A111]	> 6.52	> 6.52
Cn1cc(-c2ccc(-c3cn4cccc4c(=O)[nH]3)cc2)cn1 [Compound A25, 3-[4-(1-methyl-1H-pyrazol-4-yl)-phenyl]-2H-pyrrolo[1,2-a]pyrazin-1-one]	> 6.52	> 6.52
CN1CCC(c2ccc(-c3cn4cccc4c(=O)[nH]3)cc2)C1 (stereo not shown) [Compound A80, 3-[4-(1-methyl-pyrrolidin-3-yl)-phenyl]-2H-pyrrolo[1,2-a]pyrazin-1-one]	> 6.52	5.52 to 6.52
CCC(O)(CC)c1ccc(-c2cn3cc(F)cc3c(=O)[nH]2)cc1 [Compound A61, 3-[4-(1-ethyl-1-hydroxy-propyl)-phenyl]-7-fluoro-2H-pyrrolo[1,2-a]pyrazin-1-one]	> 6.52	> 6.52
CC(C)(O)c1ccc(-c2cn3cc(Cl)cc3c(=O)[nH]2)cc1 [Compound A60, 7-chloro-3-[4-(1-hydroxy-1-methyl-ethyl)-phenyl]-2H-pyrrolo[1,2-a]pyrazin-1-one]	> 6.52	> 6.52
CC(C)(C)c1ccc(-c2cn3cc(F)cc3c(=O)[nH]2)cc1 [Compound A35, 3-(4-tert-butyl-phenyl)-7-fluoro-2H-pyrrolo[1,2-a]pyrazin-1-one]	> 6.52	> 6.52
CC(C)(OCCO)c1ccc(-c2cn3cc(F)cc3c(=O)[nH]2)cc1 [Compound A70, 7-fluoro-3-{4-[1-(2-hydroxy-ethoxy)-1-methyl-ethyl]-phenyl}-2H-pyrrolo[1,2-a]pyrazin-1-one]	> 6.52	> 6.52
O=c1[nH]c(-c2ccc(C3CCNC3)cc2)cn2cccc12 (stereo not shown) [Compound A76, 3-(4-Pyrrolidin-3-yl-phenyl)-2H-pyrrolo[1,2-a]pyrazin-1-one]	> 6.52	5.52 to 6.52
